Assay results as given in patent US8653000B2, “Imine substituted 2,4-diaryl-pyrroline derivatives as pesticides” (BASF SE, priority 2010, dated 2014).

Key:
Format in all cases: in vivo
[1] = tested on: Silverleaf Whitefly (Bemisia Argentifolii); assay: Silverleaf whitefly spray test on cotton plants; details: at 300 ppm; cotton plants sprayed; 3 days after treatment
Excerpt: B.8 Silverleaf Whitefly (Bemisia Argentifolii)
(§1) The active compounds were formulated in cyclohexanone as a 10,000 ppm solution supplied in tubes. The tubes were inserted into an automated electrostatic sprayer equipped with an atomizing nozzle and they served as stock solutions for which lower dilutions were made in 50% acetone:50% water (v/v). A nonionic surfactant (Kinetic) was included in the solution at a volume of 0.01% (v/v).
Cotton plants at the cotyledon stage (one plant per pot) were sprayed by an automated electrostatic plant sprayer equipped with an atomizing spray nozzle. The plants were dried in the sprayer fume hood and then removed from the sprayer. Each pot was placed into a plastic cup and about 10 to 12 whitefly adults (approximately 3-5 days old) were introduced. The insects were collected using an aspirator and a nontoxic Tygon® tubing connected to a barrier pipette tip. The tip, containing the collected insects, was then gently inserted into the soil containing the treated plant, allowing insects to crawl out of the tip to reach the foliage for feeding. Cups were covered with a reusable screened lid. […] Mortality was assessed 3 days after treatment, compared to untreated control plants.

[2] = tested on: Colorado Potato Beetle (Leptinotarsa Decemlineata); assay: Colorado potato beetle test on sprayed eggplant foliage; details: at 10 ppm, 4 days after treatment
Method: B.13 Colorado Potato Beetle (Leptinotarsa Decemlineata)
as §1, with “(Kinetic®)” for “(Kinetic)”
Eggplants were grown 2 plants to a pot and were selected for treatment at the 1st true leaf stage. Test solutions were sprayed onto the foliage by an automated electrostatic plant sprayer equipped with an atomizing spray nozzle. The plants were dried in the sprayer fume hood and then removed from the sprayer. The treated foliage was then cut and removed from the pot and placed in a 5-inch Petri dish lined with moistened filter paper. Five beetle larvae were introduced into each Petri dish and the dish was covered by a Petri dish lid. Petri dishes were maintained in a growth room at 25° C. and 20-40% relative humidity for 4 days, avoiding direct exposure to fluorescent light (24 hour photoperiod) to prevent trapping of heat inside the dishes. Mortality and reduced feeding were assessed 4 days after treatment, compared to untreated control plants.

[3] = tested on: Cowpea Aphid (Aphis Craccivora); assay: Cowpea aphid spray test on potted cowpea plants; details: cowpea plants sprayed, population reduction assessed after 24, 72 and 120 hours, read-out: mortality in comparison with untreated controls
Method: B.2 Cowpea Aphid (Aphis Craccivora)
Potted cowpea plants colonized with approximately 100-150 aphids of various stages were sprayed after the pest population had been recorded. Population reduction was assessed after 24, 72, and 120 hours.

[4] = tested on: Diamond Back Moth (Plutella Xylostella); assay: Diamond back moth leaf-dip test on Chinese cabbage; details: foliar, mortality recorded 24, 72 and 120 hours after treatment, read-out: mortality in comparison with untreated controls
Method: B.3 Diamond Back Moth (Plutella Xylostella)
Leaves of Chinese cabbage were dipped in test solution and air-dried. Treated leaves were placed in petri dished lined with moist filter paper. Mortality was recorded 24, 72, and 120 hours after treatment.

[5] = tested on: green peach aphid (Myzus persicae); assay: Green peach aphid systemic test, artificial diet in 96-well plates; details: 72 h, 3 days, read-out: mortality in comparison with untreated controls
Excerpt: B.4 Green Peach Aphid (Myzus Persicae)
For evaluating control of green peach aphid (Myzus persicae) through systemic means the test unit consisted of 96-well-microtiter plates containing liquid artificial diet under an artificial membrane.
The compounds were formulated using a solution containing 75% v/v water and 25% v/v DMSO. Different concentrations of formulated compounds were pipetted into the aphid diet, using a custom built pipetter, at two replications.
After application, 5-8 adult aphids were placed on the artificial membrane inside the microtiter plate wells. The aphids were then allowed to suck on the treated aphid diet and incubated at about 23±1° C. and about 50±5% relative humidity for 3 days. Aphid mortality and fecundity was then visually assessed.

[6] = tested on: Mediterranean fruitfly (Ceratitis capitata); assay: Mediterranean fruitfly microtiter plate test on insect diet with eggs; details: 120 h, sprayed onto insect diet, egg and larval mortality after 5 days, read-out: mortality in comparison with untreated controls
Method: B.5 Mediterranean Fruitfly (Ceratitis Capitata)
For evaluating control of Mediterranean fruitfly (Ceratitis capitata) the test unit consisted of microtiter plates containing an insect diet and 50-80 C. capitata eggs.
(§2) The compounds were formulated using a solution containing 75% v/v water and 25% v/v DMSO. Different concentrations of formulated compounds were sprayed onto the insect diet at 5 μl, using a custom built micro atomizer, at two replications.
(§3) After application, microtiter plates were incubated at about 28±1° C. and about 80±5% relative humidity for 5 days. Egg and larval mortality was then visually assessed.

[7] = tested on: Orchid Thrips (Dichromothrips corbetti); assay: Orchid thrips floral-immersion test; details: 96 h, after 4 days, read-out: mortality in comparison with untreated controls
Method: B.6 Orchid Thrips (Dichromothrips corbetti)
Dichromothrips corbettiadults used for bioassay were obtained from a colony maintained continuously under laboratory conditions. For testing purposes, the test compound was diluted to a concentration of 500 ppm (wt compound: vol diluent) in a 1:1 mixture of acetone:water (vol:vol), plus 0.01% vol/vol Kinetic® surfactant.
Thrips potency of each compound was evaluated by using a floral-immersion technique. Plastic petri dishes were used as test arenas. All petals of individual, intact or chid flowers were dipped into treatment solution and allowed to dry. Treated flowers were placed into individual petri dishes along with 10-15 adult thrips. The petri dishes were then covered with lids. All test arenas were held under continuous light and a temperature of about 28° C. for duration of the assay. After 4 days, the numbers of live thrips were counted on each flower, and along inner walls of each petri dish. The level of thrips mortality was extrapolated from pre-treatment thrips numbers.

[8] = tested on: Southern Armyworm (Spodoptera Eridania); assay: Southern armyworm spray test on lima bean plants; details: foliar, 96 h, lima bean foliage sprayed, 4 days after treatment, read-out: mortality in comparison with untreated controls
Method: B.9 Southern Armyworm (Spodoptera Eridania)
as §1, with “(Kinetic®)” for “(Kinetic)”
Lima bean plants (variety Sieva) were grown 2 plants to a pot and selected for treatment at the 1st true leaf stage. Test solutions were sprayed onto the foliage by an automated electrostatic plant sprayer equipped with an atomizing spray nozzle. The plants were dried in the sprayer fume hood and then removed from the sprayer. Each pot was placed into perforated plastic bags with a zip closure. About 10 to 11 armyworm larvae were placed into the bag and the bags zipped closed. Test plants were maintained in a growth room at about 25° C. and about 20-40% relative humidity for 4 days, avoiding direct exposure to fluorescent light (24 hour photoperiod) to prevent trapping of heat inside the bags. Mortality and reduced feeding was assessed 4 days after treatment, compared to untreated control plants.

[9] = tested on: vetch aphid (Megoura viciae); assay: Vetch aphid test on broad bean leaf disks in 24-well plates; details: foliar, 120 h, sprayed onto leaf disks, 5 days, read-out: mortality in comparison with untreated controls
Method: B.10 Vetch Aphid (Megoura Viciae)
For evaluating control of vetch aphid (Megoura viciae) through contact or systemic means the test unit consisted of 24-well-microtiter plates containing broad bean leaf disks.
The compounds were formulated using a solution containing 75% v/v water and 25% v/v DMSO. Different concentrations of formulated compounds were sprayed onto the leaf disks at 2.5 μl, using a custom built micro atomizer, at two replications.
After application, the leaf disks were air-dried and 5-8 adult aphids placed on the leaf disks inside the microtiter plate wells. The aphids were then allowed to suck on the treated leaf disks and incubated at about 23±1° C. and about 50±5% relative humidity for 5 days. Aphid mortality and fecundity was then visually assessed.

[10] = tested on: tobacco budworm (Heliothis virescens); assay: Tobacco budworm microtiter plate test on insect diet with eggs; details: 120 h, sprayed onto insect diet, egg and larval mortality after 5 days, read-out: mortality in comparison with untreated controls
Method: B.11 Tobacco Budworm (Heliothis Virescens) I
as §2, with “For evaluating control of tobacco budworm (Heliothis virescens) the test unit consisted of 96-well-microtiter plates containing an insect diet and 15-25 H. virescens eggs. The” for “The”, “at 10” for “at 5”
as §3

[11] = tested on: boll weevil (Anthonomus grandis); assay: Boll weevil microtiter plate test on insect diet with eggs; details: 120 h, sprayed onto insect diet, egg and larval mortality after 5 days, read-out: mortality in comparison with untreated controls
Method: B.12 Boll Weevil (Anthonomus Grandis)
For evaluating control of boll weevil (Anthonomus grandis) the test unit consisted of 24-well-microtiter plates containing an insect diet and 20-30 A. grandis eggs.
The compounds were formulated using a solution containing 75% v/v water and 25% v/v DMSO. Different concentrations of formulated compounds were sprayed onto the insect diet at 20 μl, using a custom built micro atomizer, at two replications. After application, microtiter plates were incubated at about 23±1° C. and about 50±5% relative humidity for 5 days. Egg and larval mortality was then visually assessed.

[12] = tested on: Red Spider Mite (Tetranychus Kanzawai); assay: Red spider mite spray test on potted cowpea beans; details: cowpea beans sprayed, after 72 h, read-out: mortality in comparison with untreated controls
Method: B.14 Red Spider Mite (Tetranychus Kanzawai)
The active compound was dissolved at the desired concentration in a mixture of 1:1 (v/v) distilled water:acetone. A surfactant (Alkamuls® EL 620) was added at the rate of 0.1% (v/v).
Potted cowpea beans of 7-10 days of age were cleaned with tap water and sprayed with 5 ml of the test solution using air driven hand atomizer. The treated plants were allowed to air dry and afterwards inculated with 20 or more mites by clipping a cassaya leaf section with known mite population. Treated plants were placed inside a holding room at about 25-27° C. and about 50-60% relative humidity.
Mortality was determined by counting the live mites 72 HAT. Percent mortality was assessed after 72 h.

## O=C(NCC(F)(F)F)NN=Cc1ccc(C2=NCC(c3cc(Cl)cc(Cl)c3)(C(F)(F)F)C2)cc1Cl (racemic) [Compound 2-3]
[1]
  mortality in comparison with untreated controls: at least 75%

## CNC(=O)NN=Cc1ccc(C2=NCC(c3cc(Cl)cc(Cl)c3)(C(F)(F)F)C2)cc1Cl (racemic) [Compound 2-4]
[2]
  mortality in comparison with untreated controls: at least 75%

## Cc1cc(C2=NCC(c3cc(Cl)cc(Cl)c3)(C(F)(F)F)C2)ccc1/C=N/NC(=O)NCC(F)(F)F (stereo not drawn) [Compound 1-3, 1-[(E)-[4-[3-(3,5-dichlorophenyl)-3-(trifluoromethyl)-2,4-dihydropyrrol-5-yl]-2-methyl-phenyl]methyleneamino]-3-(2,2,2-trifluoroethyl)urea]
[3]
  mortality at 500 ppm: ≥ 75%
[4]
  mortality at 500 ppm: ≥ 75%
[5]
  mortality at 2500 ppm: ≥ 75%
[6]
  mortality at 2500 ppm: ≥ 75%
[7]
  mortality at 500 ppm: ≥ 75%
[8]
  mortality at 1 ppm: ≥ 75%
[9]
  mortality at 2500 ppm: ≥ 75%
[10]
  mortality at 2500 ppm: ≥ 75%
[11]
  mortality at 2500 ppm: ≥ 75%
[12]
  mortality at 500 ppm: ≥ 75%
